According to patent US9540314B2, “N-cycloalkyl-N-[(cycloalkenylphenyl)methylene]-(thio) carboxamide derivatives” (BAYER INTELLECTUAL PROPERTY GMBH, priority 2012, dated 2017):

Key:
Botrytis cinerea = test: In vivo preventive test on Botrytis cinerea (beans)
Protocol: (§1) To produce a suitable preparation of active compound, 1 part by weight of active compound is mixed with the stated amounts of solvent and emulsifier, and the concentrate is diluted with water to the desired concentration.
To test for preventive activity, young plants are sprayed with the preparation of active compound. After the spray coating has dried on, 2 small pieces of agar covered with growth of Botrytis cinerea are placed on each leaf. The inoculated plants are placed in a darkened chamber at 20° C. and a relative atmospheric humidity of 100%.
2 days after the inoculation, the size of the lesions on the leaves is evaluated. 0% means an efficacy which corresponds to that of the untreated control, while an efficacy of 100% means that no disease is observed.
Under these conditions, excellent (at least 95%) protection is observed at a dose of 100 ppm of active ingredient with the following compound from table E1: […]

Sphaerotheca fuliginea = test: In vivo preventive test on Sphaerotheca fuliginea (powdery mildew on cucurbits); settings: 500 ppm, gherkin plants, grading 12 days after contamination
Protocol: The active ingredients tested are prepared by homogenization in a mixture of acetone/tween/DMSO and then diluted with water to obtain the desired active material concentration.
Gherkin plants (“Vert petit de Paris” variety), sown in starter cups on a 50/50 peat soil-pozzolana substrate and grown at 24° C., are treated at the Z11 cotyledon stage by spraying with the active ingredient prepared as described above. Plants, used as controls, are treated with the mixture of acetone/tween/DMSO/water not containing the active material.
After 24 hours, the plants are contaminated by spraying the cotyledons with an aqueous suspension of Sphaerotheca fuliginea spores (100 000 spores per mL). The spores are collected from infected plants. The contaminated gherkin plants are incubated at about 20° C. and at 70-80% relative humidity.
Grading (% of efficacy) is carried out 12 days after the contamination, in comparison with the control plants.
Under these conditions, good (at least 70%) to total protection is observed at a dose of 500 ppm of active ingredient with the following compounds from table A: […]

Venturia inaequalis = test: In vivo preventive test on Venturia inaequalis (apples); settings: 100 ppm, evaluated 10 days after inoculation
Protocol: as §1
To test for preventive activity, young plants are sprayed with the preparation of active compound at the stated rate of application. After the spray coating has dried on, the plants are inoculated with an aqueous conidia suspension of the causal agent of apple scab (Venturia inaequalis) and then remain for 1 day in an incubation cabinet at approximately 20° C. and a relative atmospheric humidity of 100%.
The plants are then placed in a greenhouse at approximately 21° C. and a relative atmospheric humidity of approximately 90%.
The test is evaluated 10 days after the inoculation. 0% means an efficacy which corresponds to that of the untreated control, while an efficacy of 100% means that no disease is observed.
Under these conditions, excellent (at least 95%) protection is observed at a dose of 100 ppm of active ingredient with the following compound from table D: […]

Septoria tritici = test: In vivo preventive test on Septoria tritici (wheat); settings: 500 ppm of active ingredient; wheat plants, preventive spray; grading 24 days after contamination
Protocol: The active ingredients tested are prepared by homogenization in a mixture of acetone/tween/DMSO, and then diluted with water to obtain the desired active material concentration.
Wheat plants (“Scipion” variety), sown in starter cups on a 50/50 peat soil pozzolana substrate and grown at 22° C., are treated at the 1 leaf stage (10 cm height) by spraying with the active ingredient prepared as described above. Plants, used as controls, are treated with the mixture of acetone/tween/DMSO/water not containing the active material.
After 24 hours, the plants are contaminated by spraying the leaves with an aqueous suspension of cryopreserved Septoria tritici spores (500 000 spores per mL). The contaminated wheat plants are incubated for 72 hours at 18° C. and at 100% relative humidity, and then for 21 days at 90% relative humidity.
Grading (% of efficacy) is carried out 24 days after the contamination, in comparison with the control plants.
Under these conditions, good (at least 70%) to total protection is observed at a dose of 500 ppm of active ingredient with the following compounds from table J: […]

Leptosphaeria nodorum = test: In vivo preventive test on Leptosphaeria nodorum (wheat); settings: 100 ppm, evaluated 7-9 days after inoculation
Protocol: Solvent: 49 parts by weight of N,N-dimethylacetamide
Emulsifier: 1 part by weight of alkylarylpolyglycol ether
To produce a suitable preparation of active compound, 1 part by weight of active compound or active compound combination is mixed with the stated amounts of solvent and emulsifier, and the concentrate is diluted with water to the desired concentration.
To test for preventive activity, young plants are sprayed with the preparation of active compound or active compound combination at the stated rate of application.
After the spray coating has been dried, the plants are sprayed with a spore suspension of Leptosphaeria nodorum. The plants remain for 48 hours in an incubation cabinet at approximately 20° C. and a relative atmospheric humidity of approximately 100%.
The plants are placed in the greenhouse at a temperature of approximately 22° C. and a relative atmospheric humidity of approximately 80%.
The test is evaluated 7-9 days after the inoculation. 0% means an efficacy which corresponds to that of the untreated control, while an efficacy of 100% means that no disease is observed.
Under these conditions, excellent (at least 95%) protection is observed at a dose of 100 ppm of active ingredient with the following compound from table G: […]

Pyrenophora teres = test: In vivo preventive test on Pyrenophora teres (barley); settings: 500 ppm of active ingredient; barley plants, preventive spray; grading 14 days after contamination
How it was run: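 Barley plants ('Plaisant', 1-leaf stage) were sprayed with compound in acetone/tween/DMSO/water, then inoculated 24 h later with P. teres spores (12 000 spores per mL). Plants were held 48 h at 20° C./100% RH, then 12 days at 70-80% RH. Efficacy (%) was graded 14 days after inoculation relative to solvent-treated controls.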

Puccinia recondita = test: In vivo preventive test on Puccinia recondita (brown rust on wheat); settings: 500 ppm of active ingredient; wheat plants, preventive spray; grading 12 days after contamination
How it was run: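 Wheat ("Scipion") at the 1-leaf stage was sprayed with compound in acetone/tween/DMSO/water, then inoculated 24 h later with Puccinia recondita spores (100 000 spores per mL). Plants were held 24 h at 20° C and 100% RH, then 10 days at 20° C and 70-80% RH. Efficacy (%) was graded 12 days post-inoculation against solvent-treated controls.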

With `Cc1nn(C)c(F)c1C(=O)N(C1CC1)C(C)c1ccccc1C1=CCCC1` (racemic) [I.1] the Efficacy (Botrytis cinerea; Table E1, 100 ppm, lesion size 2 days after inoculation) was 98%, the Efficacy (Botrytis cinerea; Table E2, dose 100 ppm, 2 days after inoculation) was 98% and the Efficacy (Botrytis cinerea; Table E2, dose 100 ppm, 2 days after inoculation, listed as 1.1) was “at least 95%”. The Efficacy (Botrytis cinerea; Table E2, dose 250 ppm, 2 days after inoculation) was 98%, the Efficacy (Botrytis cinerea; Table E2, dose 250 ppm, 2 days after inoculation, listed as 1.1) was “at least 95%” and the Efficacy (Sphaerotheca fuliginea) was 100%. For the same compound, the Efficacy (Venturia inaequalis) was 98%, the Efficacy (Septoria tritici) was 97% and the Efficacy (Leptosphaeria nodorum) was 95%. The Efficacy (Pyrenophora teres) was 97% and the Efficacy (Puccinia recondita) was 81%.
